In US20120201902A1, “ANTIMICROBIAL/PRESERVATIVE COMPOSITIONS COMPRISING BOTANICALS” (The Trustees of Columbia University in the City of New York, priority 2009, published 2012):

Experiments:
S. aureus [1] = assay: In vitro rapid (15 seconds) antibacterial activity (Method A), S. aureus; format: cell-based
Experimental: Method A: 0.8 ml of a test solution was mixed with 0.1 ml of bacterial culture (10^8 cfu/ml) and 0.1 ml of bovine serum and vortexed for 15 seconds. 9 ml of drug neutralizing Fluid (DNF) was then added and serially diluted with DNF and plated on trypticase soy agar (TSA) plates. The plates were incubated for 24-48 hours at 37° C., and colony counts were determined. For a control, a gel base was used alone. The gel base (Base 26) contains 0.2% hydroxymethylpropyl cellulose and 0.2% polyquaternium10, and 0.5% 1,3 propanediol in water.
The present example evaluates rapid (15 seconds) antibacterial activity of various agents, alone and in combination, in an aqueous gel base (Base 26) using S. aureus as the test organism. One method of testing (Method A) uses 0.8 ml of the test solution mixed with 0.1 ml of bacterial culture (10^8 cfu/ml) and 0.1 ml of Bovine serum. The solution is vortexed for 15 seconds. 9.0 ml of drug neutralizing Fluid (DNF) is then added and then serially diluted with DNF and plated on TSA plates. Plates are incubated for 24-48 hours at 37° C. and colony counts were determined. For A control, the base was used alone.

S. aureus [2] = conditions: erythromycin, gentamicin, vancomycin, ciproflaxin, clindamycin, tetracycline; cited from earlier work
S. aureus [3] = assay: In vitro rapid (15 seconds) efficacy of hand disinfectant soap (Method A with 10^9 organism); format: cell-based
Description: The method of testing is same method as described above as Method A, however using 10^9 organism instead 10^8.

Aspergillus niger = assay: Preservative efficacy in cream (Method 1), Aspergillus niger; format: cell-based; conditions: for efficacy of solvent added to GSE, lemongrass oil and lactic acid: against A. niger
C. albicans [4] = assay: Preservative efficacy in cream (Method 1), C. albicans; format: cell-based, Candida albicans; conditions: for Efficacy (log10 reduction from control growth) C. albicans: Table 67
[5] = cited from earlier work
C. albicans [6] = assay: Efficacy of antifungal creams in pig skin method (Method D), loosely and tightly adhered organism; format: cell-based, Candida albicans; conditions: conclusion of Example 31 (Methods C, D, E)
Experimental: Method D: Evaluation of efficacy in pig skin method (test organism C. albicans). […] At the end of incubation, DNF (drug neutralizing fluid) was added to each piece, mixed to remove the cream and loosely adhered bacteria on the skin. Loosely adhered organism: The fluid containing the cream was removed, serially diluted with DNF and aliquots plated on TSA and incubated for 24-48 hours and colonies were counted. Tightly adhered organism: DNF was added to the rinsed pigskin and sonicated for 20 minutes to remove the tightly adhered bacteria. The fluid after sonication was serially diluted, plated on TSA and, incubate for 24-48 hours and colony counts were determined.

S. aureus [7] = assay: In vitro rapid (15 second) efficacy of surface disinfectants; format: cell-based; conditions: surfactant base
Experimental: The following ingredients were added in a surfactant base containing water and alkyl polyglycoside surfactant (Glucopon) (Table 125).
Table 126 provides the dadta for an in vitro rapid (15 second) antibacterial efficacy of surface disinfectants against S. aureus.
The following ingredients were added in a surfactant base containing water and alkyl polyglycoside surfactant (Glucopon) (Table 127).
Table 128 provides the results from an in vitro rapid (15 second) antibacterial efficacy of surface disinfectants against S. aureus.

S. aureus [8] = assay: Synergistic antibacterial activity of benzyl alcohol and citrus fruit extract in proteinaceous media (1 minute); format: cell-based; conditions: 2.0 % w/w, media 50% TSB and 50% bovine serum
Experimental: Citrus fruit extract was obtained from PL Thomas (BiosecurF440D organic citrus fruit extract concentrate). The following concentrations of compounds were added to S. aureus culture (10^8 cfu/ml of media containing 50% TSB and 50% bovine serum). After 1 minute, drug neutralizing fluid (DNF) was added and mixed. The samples were then serially diluted with DNF and plated in TSA plate. The plates were incubated for 24-48 hours at 37° C. and colony counts were determined.

[9] = Table 107, 2.0 % w/w, 15 seconds
[10] = Table 106, 3.0 % w/w in Base 26, 15 seconds
[11] = Table 106, 0.2 % w/w in Base 26, 15 seconds
[12] = Table 106, 2.0 % w/w in Base 26, 15 seconds
[13] = Table 106, 0.5 % w/w in Base 26, 15 seconds

O=C1O[C@H]([C@@H](O)CO)C(O)=C1O [ascorbic acid]
synergistic activity of organic acids with benzyl alcohol (S. aureus [1]): not effective | log10 reduction (S. aureus [1]; [9]): 0.1 log10

CC(C)=CCC[C@](C)(O)C1CC=C(C)CC1 (some centres unmarked) [bisabolol]
susceptibility of S. aureus to antibiotics (S. aureus [2]): enhanced the susceptibility

CC(C)=CCC/C(C)=C/CC1CCCC1=O (centres unmarked) [apritone]
susceptibility of S. aureus to antibiotics (S. aureus [2]): enhanced the susceptibility

benzalkonium chloride [reference compound]
synergistic action with BPC (benzyl alcohol, propanediol, citric acid) (S. aureus [3]): synergistic action | synergistic activity with benzyl alcohol and fruit acids (S. aureus [1]; Base 26, 15 seconds): synergistic activity | log10 reduction (S. aureus [1]; Table 106, 0.1 % w/w in Base 26, 15 seconds): 2.7 log10

OCc1ccccc1 [Preservative 2]
Efficacy (log10 reduction from control growth) A. niger (Aspergillus niger; Table 59, preservative in hydrophilic cream base, pH 4.5-5.0, benzyl alcohol (natural), GSE, Zemea, control growth 1 × 10^4-5 × 10^4): 0.98 log10

OCCCO [Zemea ®]
Efficacy (log10 reduction from control growth) C. albicans (C. albicans [4]; 0.5 % w/w in cream): 0.5 log10 | Efficacy (log10 reduction from control growth) A. niger (Aspergillus niger; Table 67, 0.5 % w/w in cream): 0.85 log10

OCCCO [1,3 propanediol]
synergistic efficacy of benzyl alcohol and GSE, with and without 1,3 propanediol (Aspergillus niger; 1-2% preservative in hydrophilic cream base, pH 4.5-5.0, tested against Aspergillus niger and C. albicans): enhances the activity | log10 reduction (S. aureus [1]; [10]): 0.2 log10

CC(O)C(=O)O (centres unmarked) [lactic acid]
synergistic activity of organic acids with benzyl alcohol (S. aureus [1]): synergistic activity | log10 reduction (S. aureus [1]; [11]): 0.1 log10 | log10 reduction (S. aureus [1]; [12]): 0.11 log10 | log10 reduction (S. aureus [1]; [9]): 0.11 log10

zinc picolinate
water solubility (in words) [5]: moderately water soluble

Clc1ccc(COC(Cn2ccnc2)c2ccc(Cl)cc2Cl)c(Cl)c1 (centres unmarked) [miconazole]
antifungal activity with synergistic combination of benzyl alcohol, fruit acid, biguanide and benzalkonium chloride (C. albicans [6]): significantly enhanced

Oc1cc(Cl)ccc1Oc1ccc(Cl)cc1Cl [triclosan]
synergistic action with BPC (benzyl alcohol, propanediol, citric acid) (S. aureus [3]): synergistic action

(polyiminoimidocarbonyliminoimidocarbonyl-iminohexamethylene)hydro-chloride [Vantocil]
synergistic activity with benzyl alcohol and fruit acids (S. aureus [7]): synergistic activity | synergistic activity with benzyl alcohol and lactic acid (S. aureus [7]): synergistic activity

CC(C)=CCCC(C)=CCCC(C)=CCO [farnesol]
susceptibility of S. aureus to antibiotics (S. aureus [2]): enhanced the susceptibility

N=C(NCCCCCCNC(=N)NC(=N)Nc1ccc(Cl)cc1)NC(=N)Nc1ccc(Cl)cc1.O=C(O)[C@H](O)[C@@H](O)[C@H](O)[C@H](O)CO.O=C(O)[C@H](O)[C@@H](O)[C@H](O)[C@H](O)CO [Chlorhexidine gluconate]
log10 reduction (S. aureus [1]; [13]): 2.4 log10

[H]/N=C(\N/C(=N/[H])NCCCCCCNC(=N)NC(=N)Nc1ccc(Cl)cc1)Nc1ccc(Cl)cc1 [chlorhexidine, reference compound]
synergistic activity with benzyl alcohol and fruit acids (S. aureus [1]; Base 26, 15 seconds): synergistic activity

OCc1ccccc1 [Benzyl alcohol, benzyl alcohol]
Antibacterial activity against S. Aureus (10^8 CFU/ml) log10 reduction (S. aureus [8]): 0.1 log10 | Efficacy (log10 reduction from control growth) C. albicans (C. albicans [4]; 0.5 % w/w in cream): 1.0 log10 | Efficacy (log10 reduction from control growth) C. albicans (C. albicans [4]; 1.0 % w/w in cream): 2.7 log10 | efficacy of solvent added to GSE, lemongrass oil and lactic acid (C. albicans [4]; against C. albicans): higher efficacy | synergistic activity with Zemea (C. albicans [4]; higher concentrations of benzyl alcohol, against C. albicans): synergistic activity | synergistic activity with the combination of GSE, lemongrass oil, and lactic acid (Aspergillus niger; Example 5, organism not given): synergistic activity | Efficacy (log10 reduction from control growth) A. niger (Aspergillus niger; Table 67, 0.5 % w/w in cream): 1.0 log10 | Efficacy (log10 reduction from control growth) A. niger (Aspergillus niger; Table 67, 1.0 % w/w in cream): 1.9 log10 | efficacy of solvent added to GSE, lemongrass oil and lactic acid (Aspergillus niger): higher efficacy | log10 reduction (S. aureus [1]; [13]): 0.13 log10 | log10 reduction (S. aureus [1]; Table 106, 1.0 % w/w in Base 26, 15 seconds): 0.14 log10 | log10 reduction (S. aureus [1]; [12]): 0.18 log10 | log10 reduction (S. aureus [1]; [10]): 0.2 log10 | log10 reduction (S. aureus [1]; [9]): 0.12 log10 | synergistic activity with citric and lactic acid (S. aureus [1]; benzyl alcohol at 1% and more than 1%, Base 26, 15 seconds): synergistic activity | activity along with fruit acid without any botanical extracts (S. aureus [1]; benzyl alcohol at higher concentrations, 15 seconds): effective

O=C(O)CC(O)(CC(=O)O)C(=O)O [Citric acid]
log10 reduction (S. aureus [1]; [11]): 0.1 log10

C=CC(C)(O)CCC=C(C)CCC=C(C)C (centres unmarked) [nerolidol]
susceptibility of S. aureus to antibiotics (S. aureus [2]): enhanced the susceptibility

O=C(O)c1ccccc1 [benzoic acid]
synergistic activity of organic acids with benzyl alcohol (S. aureus [1]): synergistic activity | log10 reduction (S. aureus [1]; [9]): 0.1 log10

CCCCC(CC)COCC(O)CO (centres unmarked) [Sensiva, Octoxyglycerin]
efficacy of solvent added to GSE, lemongrass oil and lactic acid (C. albicans [4]; against C. albicans): effective against C. albicans | efficacy of solvent added to GSE, lemongrass oil and lactic acid (Aspergillus niger): not against A. niger

N=C(NCCCCCCNC(=N)NC(=N)Nc1ccc(Cl)cc1)NC(=N)Nc1ccc(Cl)cc1.O=C(O)[C@H](O)[C@@H](O)[C@H](O)[C@H](O)CO.O=C(O)[C@H](O)[C@@H](O)[C@H](O)[C@H](O)CO [Chlorhexidine gluconte]
log10 reduction (S. aureus [1]; [11]): 1.43 log10
